{"source": "patent US9233093B2", "about": "“Composition and/or method for preventing recurrence of stroke” (MOCHIDA PHARMACEUTICALS CO., LTD., priority 2006, dated 2016)", "key": {"[1]": {"tested_on": "hyperlipidemia patients having history of stroke (onset/recurrence of stroke)", "assay": "DELIS (Japan EPA Lipid Intervention Study) partial analysis: recurrence of stroke over 5 years in patients with history of stroke", "assay_type": "in vivo, human", "set-up": "Inhibition Rate (%): concentration or dose not given beside the values", "settings": "for Incidence rate (%) of EPA-E group: TG less than 400 mg/dL; for Inhibition Rate (%): vs control group; for reduction of the incidence rate of stroke (in words): time course 1 to 5 years", "experimental": "This trial is a partial analysis of the results obtained in DELIS (Japan EPA Lipid Intervention Study), a large scale clinical trial of high purity EPA preparation which was presented at the American College of Cardiology 2005 Annual Meeting.\nSpecifically, of the 18,645 subject patients in the DELIS trial (hyperlipidemia patients with serum T-Cho concentration of 250 mg/dl or more, at ages of 40 to 75 for male and […] to 75 for female; the patients within six months from the onset of stroke were excluded in order to exclude patients in the acute period of the stroke from the trial subjects) (EPA-E group (9,326 cases) and control group (9,319 cases)), 485 subjects from the EPA-E group and 457 subjects from the control group, having history of stroke (cerebral thrombosis, cerebral embolism, intracerebral hemorrhage, subarachnoid hemorrhage, and transient ischemic attack) were observed and analyzed for the recurrence of stroke during the period of 5 years from the start of the administration. Further, for the cases where serum TG/HDL-C ratio was known (but excluding the cases where TG value was 400 mg/dl or more), results from the subjects divided into three groups based on the serum TG/HDL-C ratio at the time of registration were also analyzed. The EPA-E group was orally administered with Epadel (Mochida Pharmaceutical Co., Ltd.) typically at an adult dose of 600 mg per administration and 3 times a day immediately after the meal. However, in the cases having abnormal serum TG, the dose could be increased up to 900 mg per administration and 3 times a day, depending on the abnormality. In both groups, pravastatin sodium (Mevalotin™ tablets and fine granules, Sankyo Co., Ltd.), simvastatin (Lipovas™ tablets, Banyu Pharmaceutical Co., Ltd.), or atorvastatin calcium hydrate (Lipitor™ tablets, Astellas Pharma Inc. and Pfizer) was used as a base drug (basal treatment), which was orally administered according to a predetermined dosage regimen.\nThe number of onset (recurrence) of stroke, the incidence rate (%), and the odds ratio for the EPA-E group in relation to the control group during the observation period of 5 years are shown in Table 1. The odds ratio was calculated by the equation of (incidence rate of the EPA-E group)/(incidence rate of the control group), and the inhibition rate of onset of stroke was calculated by the equation of {((incidence rate of stroke for the control group)−(incidence rate of stroke for the EPA-E group))/(incidence rate of stroke for the control group)}×100.\nFurther, the data described above were statistically analyzed by taking biases in the background (smoking habit, diabetes, etc.) between the groups into consideration.\nSimilarly, for the cases where serum TG/HDL-C ratio was known (but excluding the cases where TG value was 400 mg/dl or more), each of the three groups of subjects, which are divided based on the serum TG/HDL-C ratio at the time of registration, was analyzed on the number of onset (recurrence) of stroke, the incidence rate (%), and the odds ratio for the EPA-E group in relation to the control group during the observation period of 5 years, as shown in Table 4. The odds ratio was calculated by the equation of (incidence rate of the EPA-E group)/(incidence rate of the control group), and the inhibition rate of onset of stroke was calculated by the equation of {((incidence rate of stroke for the control group)−(incidence rate of stroke for the EPA-E group))/(incidence rate of stroke for the control group)}×100."}, "[2]": {"tested_on": "hyperlipidemia patients (cardiac events)", "settings": "use in combination with statin; large scale clinical trial; cited from earlier work"}, "[3]": {"settings": "after 1 year, serum TG/HDL-C ratio 3.75 or more"}, "[4]": {"settings": "after 2 years, serum TG/HDL-C ratio 3.75 or more"}, "[5]": {"settings": "after 3 years, serum TG/HDL-C ratio 3.75 or more"}, "[6]": {"settings": "after 4 years, serum TG/HDL-C ratio 3.75 or more"}, "[7]": {"settings": "after 5 years, serum TG/HDL-C ratio 3.75 or more"}, "[8]": {"settings": "all patients with history of stroke, 5 years"}, "[9]": {"settings": "cerebral thrombosis, patients with history of stroke, 5 years"}, "[10]": {"settings": "serum TG/HDL-C ratio at registration less than 1, TG less than 400 mg/dl, 5 years"}, "[11]": {"settings": "total of infarction type diseases, patients with history of stroke, 5 years"}}, "note": "Values joined by “and” are separate entries in the source; they are usually repeats but may differ in a detail not shown here. Equal entries are not always repeated.", "data": [{"smiles": "CC/C=C\\C/C=C\\C/C=C\\C/C=C\\C/C=C\\CCCC(=O)OCC", "note": "[EPA-E, ethyl icosapentate]", "values": [{"measurement": "Incidence rate (%) in EPA-E group", "setting": "[1]; after 1 year, all patients with history of stroke, analyzed taking background biases into consideration", "result": 2.1, "unit": "%"}, {"measurement": "Incidence rate (%) of EPA-E group", "setting": "[1]; [3]", "result": 1.5, "unit": "%"}, {"measurement": "Inhibition Rate (%)", "setting": "[1]; [3]", "result": 17, "unit": "%"}, {"measurement": "Incidence rate (%) in EPA-E group", "setting": "[1]; after 2 years, all patients with history of stroke, bias-adjusted analysis", "result": 3.6, "unit": "%"}, {"measurement": "Inhibition Rate (%)", "setting": "[1]; after 2 years, all patients with history of stroke", "result": 8, "unit": "%"}, {"measurement": "Incidence rate (%) of EPA-E group", "setting": "[1]; [4]", "result": 2.9, "unit": "%"}, {"measurement": "Inhibition Rate (%)", "setting": "[1]; [4]", "result": 53, "unit": "%"}, {"measurement": "Incidence rate (%) in EPA-E group", "setting": "[1]; after 3 years, all patients with history of stroke, bias-adjusted analysis", "result": 4.7, "unit": "%"}, {"measurement": "Inhibition Rate (%)", "setting": "[1]; after 3 years, all patients with history of stroke", "result": 16, "unit": "%"}, {"measurement": "Incidence rate (%) of EPA-E group", "setting": "[1]; [5]", "result": 4.4, "unit": "%"}, {"measurement": "Inhibition Rate (%)", "setting": "[1]; [5]", "result": 29, "unit": "%"}, {"measurement": "Incidence rate (%) in EPA-E group", "setting": "[1]; after 4 years, all patients with history of stroke, bias-adjusted analysis", "result": 5.7, "unit": "%"}, {"measurement": "Inhibition Rate (%)", "setting": "[1]; after 4 years, all patients with history of stroke", "result": 35, "unit": "%"}, {"measurement": "Incidence rate (%) of EPA-E group", "setting": "[1]; [6]", "result": 5.2, "unit": "%"}, {"measurement": "Inhibition Rate (%)", "setting": "[1]; [6]", "result": 55, "unit": "%"}, {"measurement": "Incidence rate (%) in EPA-E group", "setting": "[1]; after 5 years, all patients with history of stroke, bias-adjusted analysis", "result": 7.4, "unit": "%"}, {"measurement": "Inhibition Rate (%)", "setting": "[1]; after 5 years, all patients with history of stroke", "result": 37, "unit": "%"}, {"measurement": "Incidence rate (%) of EPA-E group", "setting": "[1]; [7]", "result": 7.4, "unit": "%"}, {"measurement": "Inhibition Rate (%)", "setting": "[1]; [7]", "result": 48, "unit": "%"}, {"measurement": "Odds ratio (incidence rate of EPA-E group/incidence rate of control group)", "setting": "[1]; [8]", "result": 0.648}, {"measurement": "reduction of incidence rate of stroke compared with the control group", "setting": "[1]; [8]", "result": "about 35%"}, {"measurement": "Stroke cases/All cases", "setting": "[1]; all patients with history of stroke, observation period of 5 years, Epadel 600 mg 3 times a day (up to 900 mg) plus statin base drug", "result": "33/485"}, {"measurement": "reduction of the incidence rate of stroke (in words)", "setting": "[1]; all patients with history of stroke", "result": "significant at 3 years or later after the start of the administration"}, {"measurement": "Stroke cases/All cases, cerebral thrombosis", "setting": "[1]; [9]", "result": "13/485"}, {"measurement": "incidence rate, cerebral thrombosis", "setting": "[1]; [9]", "result": "(2.9%)"}, {"measurement": "number of cases and incidence rates of hemorrhage type diseases vs control group", "setting": "[1]; hemorrhage type diseases, patients with history of stroke", "result": "lower"}, {"measurement": "reduction of the incidence rate of stroke (in words)", "setting": "[1]; patients with serum TG/HDL-C ratio 3.75 or more", "result": "significant at 3 years or later after the start of the administration"}, {"measurement": "reduction of incidence rate of stroke compared to the control group", "setting": "[1]; serum TG/HDL-C ratio 1 or more but less than 3.75, 5 years", "result": "about 36%"}, {"measurement": "reduction of incidence rate of stroke compared to the control group", "setting": "[1]; serum TG/HDL-C ratio 3.75 or more, 5 years", "result": "about 48%"}, {"measurement": "Odds ratio (incidence rate of EPA-E group/incidence rate of control group)", "setting": "[1]; serum TG/HDL-C ratio at registration 1 to 3.75, 5 years", "result": 0.640}, {"measurement": "Stroke cases/All cases", "setting": "[1]; serum TG/HDL-C ratio at registration 1 to 3.75, TG less than 400 mg/dl, 5 years", "result": "14/244"}, {"measurement": "Odds ratio (incidence rate of EPA-E group/incidence rate of control group)", "setting": "[1]; serum TG/HDL-C ratio at registration 3.75 or more, 5 years", "result": 0.519}, {"measurement": "Stroke cases/All cases", "setting": "[1]; serum TG/HDL-C ratio at registration 3.75 or more, TG less than 400 mg/dl, 5 years", "result": "10/135"}, {"measurement": "Stroke cases/All cases", "setting": "[1]; [10]", "result": "no onset of stroke was observed and 0/18"}, {"measurement": "incidence rate of stroke", "setting": "[1]; [10]", "result": "(0.0) %"}, {"measurement": "Stroke cases/All cases, total of infarctions", "setting": "[1]; [11]", "result": "28/485"}, {"measurement": "incidence rate, total of infarctions", "setting": "[1]; [11]", "result": "(6.20) %"}, {"measurement": "inhibiting cardiac events", "setting": "[2]", "result": "effective"}]}]}
